One assay deals with A2A AR (Homo sapiens, UniProt P29274). The assay is described as follows: Radioligand binding at human A2A AR. The following applies: A2A vs A1 and A3 ARs.
A further assay addresses T1, A1 AR (Homo sapiens, UniProt P30542).
T1 sequence (P30542 1-326): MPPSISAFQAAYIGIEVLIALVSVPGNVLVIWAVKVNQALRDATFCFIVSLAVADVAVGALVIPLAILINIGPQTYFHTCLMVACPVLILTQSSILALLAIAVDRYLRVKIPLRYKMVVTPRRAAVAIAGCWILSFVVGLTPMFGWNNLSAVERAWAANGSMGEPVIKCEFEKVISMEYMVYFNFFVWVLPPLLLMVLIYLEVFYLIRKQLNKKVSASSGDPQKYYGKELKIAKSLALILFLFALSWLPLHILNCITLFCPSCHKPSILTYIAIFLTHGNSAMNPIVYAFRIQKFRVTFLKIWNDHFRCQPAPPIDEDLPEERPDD
The assay is described as follows: Radioligand binding at human A1 AR.

Chain of A2A AR (P29274 whole entry): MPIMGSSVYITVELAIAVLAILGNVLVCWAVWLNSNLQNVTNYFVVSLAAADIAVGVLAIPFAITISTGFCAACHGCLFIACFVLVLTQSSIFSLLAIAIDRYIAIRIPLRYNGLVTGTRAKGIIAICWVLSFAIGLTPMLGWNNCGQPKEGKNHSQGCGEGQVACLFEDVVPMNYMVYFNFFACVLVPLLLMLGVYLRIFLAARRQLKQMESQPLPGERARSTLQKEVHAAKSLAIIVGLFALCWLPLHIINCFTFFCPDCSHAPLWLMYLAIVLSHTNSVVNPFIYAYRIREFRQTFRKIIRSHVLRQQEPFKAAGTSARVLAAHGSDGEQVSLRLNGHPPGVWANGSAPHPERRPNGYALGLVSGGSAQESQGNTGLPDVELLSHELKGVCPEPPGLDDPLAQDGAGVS

Regarding `Nc1nc2c(cnn2CCCc2ccc(OCCF)cc2)c2nc(-c3ccco3)nn12` [Compound 5], the “Selectivity for the A2A AR in comparison to the A1 and A3 ARs” value on A2A AR was “highly selective”. In addition, at A1 AR, the Ki (in general, the equilibrium dissociation constant of an inhibitor or competing ligand from its target) was roughly 10 µM.

Values taken from PMC2946083 (Bioorganic & medicinal chemistry letters, 2010).
